Assay results: patent publication US4204038A, “Process for preparing antibiotics MA 144-M1 and MA 144-M2” (Zaidan Hojin Biseibutsu Kagaku Kenkyu Kai, priority 1976, dated 1980)
Converted amounts (≈) assume the structure as drawn.

How the values were obtained:
[1] = Basicity and lipophilicity
P388 = experiment: Therapeutic effectiveness on P388-bearing mice; format: in vivo; conditions: intraperitoneally, day 1 to day 9, CDF1-P388
Protocol: (b) Therapeutic effectiveness on P388-bearing mice
Drug was administered intraperitonally

L1210 cells [2] = experiment: Protein synthesis in cultured L1210 cells; format: cell-based, mice; conditions: Mus musculus, L1210, read-out: % inhibition, Protein synthesis
Protocol: (§1) In this experiment, L1210 cells were inoculated in RPMI 1640 medium (Nissui, Roswell Park Memorial Institute 1640) containing 10% calf serum and cultivated at 37° C. for 3 days in a CO2 incubator, and MA 144-M1, MA 144-M2 and ^14 C-precursor were added at various concentrations. Effects on the synthesis of protein, RNA and DNA were indicated by the 50% inhibition concentration (μg./ml.) as shown in the following table.

L1210 cells [3] = experiment: Cytotoxicity: growth of cultured L1210 cells; format: cell-based, mice
gram-positive bacteria = experiment: Antimicrobial activity against gram-positive bacteria; format: cell-based; conditions: in words
Excerpt: (§2) (1) MA 144-M1 and MA 144-M2 have antimicrobial activity against various kinds of microorganisms.

Sarcoma 180 = experiment: Therapeutic effectiveness on Sarcoma 180 solid tumor; format: in vivo, dd mice; conditions: intraperitoneally, day 1 to day 10; for Weight of tumor: control 1.68
Protocol: (c) Therapeutic effectiveness on Sarcoma 180 solid tumor
dd mice were inoculated with 2×10^6 cells of Sarcoma 180, and drug was administered intraperitoneally from day 1 to day 10.

in vivo [4] = conditions: Rat
L1210 = experiment: Therapeutic effectiveness on L1210-bearing mice; format: in vivo; conditions: intraperitoneally, day 0 to day 10, CDF1-L1210
Protocol: (a) Therapeutic effectiveness on L1210-bearing mice
Drug was administered intraperitoneally

Toxicity = conditions: in words
in vivo [5] = conditions: Mouse
L1210 cells [6] = experiment: RNA synthesis in cultured L1210 cells; format: cell-based, mice
Protocol: as §1

Antitumor activity = format: in vivo; conditions: in words
L1210 cells [7] = experiment: DNA synthesis in cultured L1210 cells; format: cell-based, mice; conditions: Mus musculus, L1210, read-out: ID50, DNA synthesis
Protocol: as §1

Can. albicans IAM 4905 = experiment: Minimum inhibitory concentration by the broth dilution method; format: cell-based; conditions: Candida albicans, IAM4905, read-out: Minimum inhibitory concentration (MIC)
Excerpt: as §2

Can. tropicalis IAM 4942 = experiment: as above; format: cell-based; conditions: Candida tropicalis, IAM4942, read-out: Minimum inhibitory concentration (MIC)
Excerpt: as §2

Staph. aureus FDA 209P = experiment: as above; format: cell-based; conditions: Staphylococcus aureus, FDA209P, read-out: Minimum inhibitory concentration (MIC)
Excerpt: as §2

Staph. aureus Smith = experiment: as above; format: cell-based; conditions: Staphylococcus aureus, read-out: Minimum inhibitory concentration (MIC)
Excerpt: as §2

Proteus morganii = experiment: as above; format: cell-based; conditions: Morganella morganii, read-out: Minimum inhibitory concentration (MIC)
Excerpt: as §2

[8] = test system: Ps. fluorescens NIH JB-254; experiment: as above; format: cell-based; conditions: Pseudomonas fluorescens, NIHJB254, read-out: Minimum inhibitory concentration (MIC)
Excerpt: as §2

Strept. pyogenes NY 5 = experiment: as above; format: cell-based; conditions: Streptococcus pyogenes, NY5, read-out: Minimum inhibitory concentration (MIC)
Excerpt: as §2

Sarcina lutea ATCC 341 = experiment: as above; format: cell-based; conditions: Micrococcus luteus, ATCC341, read-out: Minimum inhibitory concentration (MIC)
Excerpt: as §2

Cory. bovis = experiment: as above; format: cell-based; conditions: Corynebacterium bovis, read-out: Minimum inhibitory concentration (MIC)
Excerpt: as §2

[9] = test system: Bac. megaterium NRRL B-938; experiment: as above; format: cell-based; conditions: Priestia megaterium, NRRLB938, read-out: Minimum inhibitory concentration (MIC)
Excerpt: as §2

[10] = test system: Mycobact. smegmatis ATCC 607; experiment: as above; format: cell-based; conditions: read-out: Minimum inhibitory concentration (MIC)
Excerpt: as §2

Mic. flavus = experiment: as above; format: cell-based; conditions: Micrococcus flavus, read-out: Minimum inhibitory concentration (MIC)
Excerpt: as §2

Bac. cereus ATCC 9634 = experiment: as above; format: cell-based; conditions: Bacillus cereus, ATCC9634, read-out: Minimum inhibitory concentration (MIC)
Excerpt: as §2

Bac. subtilis ATCC 6633 = experiment: as above; format: cell-based; conditions: Bacillus subtilis, ATCC6633, read-out: Minimum inhibitory concentration (MIC)
Excerpt: as §2

CCC1(O)CC(OC2CC(N(C)C)C(OC3CC(O)C(OC4CCC(O)C(C)O4)C(C)O3)C(C)O2)c2c(cc3c(c2O)C(=O)c2c(O)cccc2C3=O)C1C(=O)OC (centres unmarked) [MA 144-M1]
basicity [1]: Weakly basic
lipophilicity [1]: lipophilic
solubility: slightly soluble in (Solubility): slightly soluble in water, diethyl ether and n-hexane
solubility: soluble in (Solubility): soluble in acidic water, dimethyl sulfoxide, methylcellosolve, methanol, ethanol, ethyl acetate, acetone, chloroform, benzene, toluene
Prolongation of the survival time (P388; 0.313 mg/kg/day): 110%
Prolongation of the survival time (P388; 0.625 mg/kg/day): 135%
Prolongation of the survival time (P388; 1.25 mg/kg/day): 149%
Prolongation of the survival time (P388; 2.5 mg/kg/day): 184%
Prolongation of the survival time (P388; 5 mg/kg/day): 100%
inhibition at 10 µg/mL (L1210 cells [2]): 10%
IC50 (L1210 cells [3]; Mus musculus, L1210, 72 h, read-out: ID50, Growth): 0.12 µg/mL (≈ 0.147 µM)
inhibition of the growth of cultured L1210 cells (L1210 cells [3]; at the low concentration, in words): inhibited markedly
antimicrobial activity against gram-positive bacteria (gram-positive bacteria): show antimicrobial activity against gram-positive bacteria
% Inhibition of tumor growth (Sarcoma 180; 0.3 mg/kg/day): 25.5%
Weight of tumor (Sarcoma 180; 0.3 mg/kg/day): 1.25 g
% Inhibition of tumor growth (Sarcoma 180; 0.6 mg/kg/day): 53.7%
Weight of tumor (Sarcoma 180; 0.6 mg/kg/day): 0.78 g
% Inhibition of tumor growth (Sarcoma 180; 1.25 mg/kg/day): 51.9%
Weight of tumor (Sarcoma 180; 1.25 mg/kg/day): 0.81 g
% Inhibition of tumor growth (Sarcoma 180; 2.5 mg/kg/day): 61.3%
Weight of tumor (Sarcoma 180; 2.5 mg/kg/day): 0.65 g
% Inhibition of tumor growth (Sarcoma 180; 5 mg/kg/day): 77.4%
Weight of tumor (Sarcoma 180; 5 mg/kg/day): 0.38 g
LD50 (in vivo [4]; ip): 25 to 30 mg/kg
LD50 (in vivo [4]; iv): 25 to 30 mg/kg
Prolongation of the survival time (L1210; 0.156 mg/kg/day): 110%
Prolongation of the survival time (L1210; 0.313 mg/kg/day): 110%
Prolongation of the survival time (L1210; 0.625 mg/kg/day): 123%
Prolongation of the survival time (L1210; 1.25 mg/kg/day): 137%
Prolongation of the survival time (L1210; 2.5 mg/kg/day): 192%
Prolongation of the survival time (L1210; 5 mg/kg/day): 200%
Prolongation of the survival time (L1210; 10 mg/kg/day): 90%
toxicity (Toxicity): low toxicity
LD50 (in vivo [5]; ip): 35 mg/kg
LD50 (in vivo [5]; iv): 30 to 35 mg/kg
inhibition of RNA synthesis (L1210 cells [6]; L1210 cells, in words): completely inhibited RNA synthesis
IC50 (L1210 cells [6]; Mus musculus, L1210, read-out: ID50, RNA synthesis): 0.7 µg/mL (≈ 0.86 µM)
antitumor activity (Antitumor activity): marked antitumor activity
IC50 (L1210 cells [7]): 1.7 µg/mL (≈ 2.09 µM)
MIC (Can. albicans IAM 4905): 100 µg/mL (≈ 123 µM)
MIC (Can. tropicalis IAM 4942): > 100 µg/mL
MIC (Staph. aureus FDA 209P): 3.1 µg/mL (≈ 3.81 µM)
MIC (Staph. aureus Smith): 0.2 µg/mL (≈ 0.246 µM)
MIC (Proteus morganii): > 100 µg/mL
MIC [8]: > 100 µg/mL
MIC (Strept. pyogenes NY 5): 1.25 µg/mL (≈ 1.54 µM)
MIC (Sarcina lutea ATCC 341): 0.05 µg/mL (≈ 0.0614 µM)
MIC (Cory. bovis): 0.4 µg/mL (≈ 0.491 µM)
MIC [9]: 3.1 µg/mL (≈ 3.81 µM)
MIC [10]: 2.5 µg/mL (≈ 3.07 µM)
MIC (Mic. flavus): 0.2 µg/mL (≈ 0.246 µM)
MIC (Bac. cereus ATCC 9634): 0.78 µg/mL (≈ 0.958 µM)
MIC (Bac. subtilis ATCC 6633): 0.4 µg/mL (≈ 0.491 µM)
